Data reported in patent publication US10005733B2, “N-(4-hydroxy-4-methyl-cyclohexyl)-4-phenyl-benzenesulfonamide and N-(4-hydroxy-4-methyl-cyclohexyl)-4-(2-pyridyl)-benzenesulfonamide compounds and their therapeutic use” (PIMCO 2664 LIMITED, priority 2014, dated 2018).

Experiments:
J774 macrophages = test: Resazurin Macrophage J774 Viability Assay; type: cell-based; settings: Mus musculus, J774, 72 h; footnote (1): 10 point range 30 μM to 1.5 nM, n = 3 per concentration, Grafit; 72 hour incubation
Protocol: Potency was assessed using a viability assay based on the survival of the J774 macrophage cell line. Macrophages are closely related to osteoclasts and have been used previously as a model system for osteoclast survival (see, e.g., Luckman et al., 1998, “Heterocycle-containing bisphosphonates cause apoptosis and inhibit bone resorption by preventing protein prenylation: evidence from structure-activity relationships in J774 macrophages,” J. Bone Miner. Res., Vol. 13, pp. 1668-1678). The model is indicative both of effects on bone protection in diseases such as osteoporosis, osteoarthritis and rheumatoid arthritis, and of effects on inflammation since, like osteoclasts, J774 macrophages are dependent for survival on continued NFκB activation.
In vitro potency of test compounds was determined by incubation with J774 macrophages and subsequent determination of cell viability using resazurin.
Resazurin is a redox dye commonly used as an indicator of viability in cultured cells (see, e.g., Anoopkumar-Dukie, 2005, “Resazurin assay of radiation response in cultured cells”, British Journal of Radiology, Vol. 78, pp. 945-947). It is non-toxic to cells and stable in culture medium, allowing continuous measurement of cell proliferation in vitro as either a kinetic or endpoint assay. The assay is based on the ability of viable, metabolically-active cells to reduce resazurin (which is blue and non-fluorescent) to resorufin and dihydroresorufin (which are red and fluorescent) using electrons from reducing species, such as nicotinamide […] and flavin adenine dinucleotide (FADH). This transformation, from oxidised form to reduced form, can be measured either colorimetrically or fluorometrically. Insults that impair cell viability and proliferation also affects the capacity of cells to reduce resazurin, and the rate of dye reduction is directly proportional to the number of viable cells present.
For fluorescence measurements, 530-560 nm excitation and 590 nm emission wavelengths are typically used. For colorimetric measurements, absorbance at 570 nm (reduced form) and 600 nm (oxidised form) is typically measured. A simple calculation is performed to determine the relative quantities of the two species: a high ratio of resorufin (the reduced form) to resazurin (the oxidised form) is an indicator that cells are proliferating and viable. A low ratio indicates cells that are quiescent or non-viable.
J774 cells were plated at 10^4 cells per well in 100 μL αMEM (α Modified Eagle Medium) in 96-well plates and allowed to adhere overnight. The following day, test compounds were prepared as 100 mM solutions in DMSO. These stock solutions were diluted in DMSO and then diluted 1000× in culture medium (αMEM) before being added directly to the wells so as to give the desired final compound concentration. After a 72 hour incubation at 37° C./5% CO2, resazurin (Alamar Blue, Biosource International) was added to each well (1:10 v/v, 10 μL). The plate was then incubated at 37° C. for 3 hours and fluorescence was measured at 590 nm, with a 25 nm bandwidth.
The average results for each test compound were expressed as a percent (%) of the average control value reflecting cell viability. The average values across the concentrations tested were then plotted and an IC50 was calculated by fitting the data to a 4-parameter IC50 equation using either Graph Pad Prism software for Windows (Graph Pad Software, San Diego Calif. USA) or Grafit version 5 (Erithacus Software). Each experiment was repeated twice and the data are presented as the mean IC50 from both experiments.

[1] = Rodent Pharmacokinetics Studies; type: in vivo, rat; settings: male Han Wistar rats; for i.v. AUC: 1 mg/kg intravenous, 5% DMSO/10% solutol in saline; for bioavailability: rat, plasma, 5 mg/kg, oral in 0.5% CMC/0.1% Tween-80, i.v. in 5% DMSO/10% solutol in saline, read-out: Bioavail, F (%)
Protocol: Absorption and metabolic stability were studied using an in vivo pharmacokinetics assay.
[…] […] For compound HMC-C-01-A the oral administration was formulated in 2% dimethylacetamide/20% hydroxypropyl-β-cyclodextrin in water. Animals were given free access to food throughout the study except for fasting overnight and until 2 hours post dose on the day of dosing.
Blood samples were taken from the retro-orbital plexus at the following time points and placed in microtubes containing 20% K2EDTA solution: […]
Blood samples were centrifuged to obtain plasma, which was transferred to a separate container and frozen at −20° C.
For analysis, samples were thawed at room temperature and prepared by protein precipitation with acetonitrile spiked with internal standard (500 ng/mL glipizide) in the ratio 1:4 with plasma. The samples were then vortexed for 5 minutes and centrifuged for 10 minutes at 20,600×g at 4° C. 100 μL of the supernatant was collected for analysis.
The pharmacokinetic parameters for the test compounds were calculated by Phoenix WinNonlin version 6.3 (Pharsight Corp, CA) using standard non-compartmental methods. Peak plasma concentrations (Cmax) and time of the peak plasma concentration (Tmax) were the observed values. The area under the plasma concentration-time curve (AUC) was determined by use of the linear trapezoidal rule up to the last measurable concentration (AUClast) and thereafter by extrapolation of the terminal elimination phase to infinity (AUCinf). The terminal elimination rate constant (kel) was determined by regression analysis of the linear terminal portion of the log plasma concentration-time curve. The elimination phase half-life (t1/2) was calculated as 0.693/kel.

[2] = test system: human primary osteoclasts; test: Human Primary Osteoclastogenesis (TRAP-positive multinucleated cells from CD14+ monocytes); type: cell-based; settings: 1 μM; compound added on Day 4 of monocyte differentiation
Protocol: In vitro potency of test compounds was determined by incubating them with human primary monocytes and assessing effects on the formation of mature osteoclasts.
The activity of the compounds in reducing the formation of human primary osteoclasts (osteoclastogenesis) was tested using monocytes derived from human whole blood. Monocytes, which are positive for the cell surface marker CD14, are part of the innate immune system found in the circulation. Peripheral blood monocytes differentiate to form several cell types, including osteoclasts. Human primary osteoclasts were […] macrophage colony-stimulating factor (M-CSF) and RANKL+10% foetal calf serum for approximately 6 days, with the exact duration depending on the individual donor of the cells.
When monocytes are cultured under the conditions described above, they form large, multinucleated cells (osteoclasts), which stain positively for tartrate-resistant acid phosphatase (TRAP). TRAP staining was performed between Days 5-6 of culture depending on the individual donor. Osteoclasts are identified as cells which stain positive for TRAP and contain more than 3 nuclei. Compounds which reduce the number of TRAP-positive cells reduce the formation of osteoclasts. The bisphosphonate compound, alendronate, which is used in the treatment of osteoporosis, is used as a positive control for reducing osteoclastogenesis in this assay.
Effects on osteoclast formation were assessed by staining for TRAP and counting cells containing more than three nuclei in each well under a microscope. This allows the absolute determination of cell number in each treated well.
PBMCs (peripheral blood mononuclear cells) were collected from healthy donors and isolated by centrifugation on a layer of Ficoll Paque (GE Healthcare, UK). Monocytes were then sorted from the PBMCs using an autoMACS Pro Separator (MiltenyiBiotec), which sorts cells depending on the markers present on their cell surface. The resulting CD14+ monocytes were resuspended in αMEM supplemented with 10% FCS, 25 ng/mL M-CSF and 100 ng/ml RANKL and added to a 48-well plate, which was then incubated for up to 6 days at 37° C./5% CO2. […] The medium was replenished every 2 days.
At the end of the culture period, the medium was removed from the cells and the cells were fixed at room temperature and then washed with phosphate-buffered saline. TRAP staining solution was then added and the cells incubated at 37° C. until a red colour had developed, after which the reaction was stopped by rinsing with water. The stained cells were air-dried and then photographed using a conventional microscope and the TRAP-positive multinucleated osteoclasts counted by two independent observers.
The average results (n=6) for each concentration of test compound were averaged between the two observers and then expressed as a fold change versus the average control value. The data were then plotted graphically using software from Grafit (Erithacus Software).

[3] = 5 mg/kg orally, 0.5% CMC/0.1% Tween-80

Row | SMILES | IC50 (J774 macrophages) | i.v. AUC [1] | p.o. AUC (ng/mL/min) [1, 3] | bioavailability [1] | p.o. AUC [1, 3] | % reduction at 1 μM [2]
1 | Cc1cc(S(=O)(=O)NC2CCC(C)(O)CC2)ccc1-c1ccc(F)cc1F (single isomer, unassigned) [REF001, reference compound] | 50 nM | 963 ng/mL/min | 4766 ^(4) ng/mL/min | 50% |  | 
2 | O=S(=O)(N[C@H]1CC[C@H](O)CC1)c1ccc(-c2ncc(Cl)cc2Cl)cc1 [ABD836, reference compound] | 1450 nM | 2142 ng/mL/min |  | 55% | 5927 ng/mL/min | 
3 | NCCCC(O)(P(=O)(O)O)P(=O)(O)O [Alendronate, alendronate] |  |  |  |  |  | 12%
